Calls of active or inactive are those of the source. How the calls were made is not given here. Some results are limits rather than exact numbers.

The target of this assay is intestinal alkaline phosphatase (Alpi), Mus musculus. Nature of the assay: activators of mouse IAP enzyme, SAR follow-up, biochemical, luminescence (AID 493146). The note with it: purified mouse IAP, luminescent substrate, activation.
With `CCOC(=O)NC(=O)CSc1sc2c(O)cc(=O)[nH]c2c1C#N`, the EC50 (commonly the concentration that produces a half-maximal response) is > 100 µM (inactive).
In the case of `CCN(C(=O)C(C)N1C(=O)/C(=C/c2ccco2)SC1=S)C1CCS(=O)(=O)C1` (centres undefined), the EC50 is > 100 µM (inactive).
Regarding `COC(=O)c1ccc(C)c(NC(=O)CSc2sc3c(O)cc(=O)[nH]c3c2C#N)c1`, the EC50 was > 100 µM (inactive).
To `CC(C(=O)N(C)C1CCS(=O)(=O)C1)N1C(=O)/C(=C/c2ccco2)SC1=S` (centres undefined) belongs > 100 µM (inactive); to `O=C(CN1C(=O)/C(=C\c2ccco2)SC1=S)Nc1ccc(C(=O)O)cc1`, > 100 µM (inactive); to `O=C(CN1C(=O)/C(=C/c2ccco2)SC1=S)Nc1ccc(O)c(C(=O)O)c1`, > 100 µM (inactive).
`COc1cc(Cl)c(C)cc1NC(=O)CSc1sc2c(O)cc(=O)[nH]c2c1C#N`: the EC50 was > 100 µM (inactive).
For the molecule `COC(=O)NNC(=O)c1cc(OC)c(OC)c(OC)c1`, the EC50 was > 100 µM (inactive).
To `N#Cc1c(SCC(=O)Nc2ccccc2C(F)(F)F)sc2c(O)cc(=O)[nH]c12` belongs > 100 µM (inactive).
As to `COc1cccc(NC(=O)CN(C)S(=O)(=O)c2ccc3[nH]c(=O)oc3c2)c1`, the EC50 is > 100 µM (inactive).
In the case of `COc1ccc(CNC(=O)CSc2sc3c(O)cc(=O)[nH]c3c2C#N)cc1` it was > 100 µM (inactive); in that of `O=C(c1ccco1)N1CCN(S(=O)(=O)c2ccc3[nH]c(=O)oc3c2)CC1`, > 100 µM (inactive); in that of `Cc1ccc(C)c(NC(=O)CCNS(=O)(=O)c2ccc3[nH]c(=O)oc3c2)c1`, > 100 µM (inactive).
Consider `O=C1/C(=C/c2ccco2)SC(=S)N1C1CCS(=O)(=O)C1` (centres undefined), for which the EC50 is > 100 µM (inactive).
In the case of `COc1ccc(N2CCN(C(=O)CN3C(=O)/C(=C\c4ccco4)SC3=S)CC2)cc1` it was > 100 µM (inactive); in that of `Cc1ccc(/C=C2\SC(=S)N(C3CCS(=O)(=O)C3)C2=O)o1` (centres undefined), > 100 µM (inactive).
To `O=C(CCNS(=O)(=O)c1ccc2[nH]c(=O)oc2c1)Nc1ccccc1` belongs > 100 µM (inactive); to `COc1cc(C(=O)NNc2nc3cc4c(cc3s2)OCO4)cc(OC)c1OC`, > 100 µM (inactive).
In the case of `CC(C(=O)NCCc1ccc(O)c(O)c1)N1C(=O)/C(=C\c2ccco2)SC1=S` (centres undefined) it was > 100 µM (inactive); in that of `O=C(CN1C(=O)/C(=C/c2ccco2)SC1=S)NC1CCS(=O)(=O)C1` (centres undefined), > 100 µM (inactive); in that of `O=C(CN1C(=O)/C(=C/c2ccco2)SC1=S)Nc1cccc(C(=O)O)c1`, > 100 µM (inactive).
With `N#Cc1c(SCC(=O)Nc2ccc(Cl)cc2Cl)sc2c(O)cc(=O)[nH]c12`, the EC50 was > 100 µM (inactive).
To `FC(F)(F)c1cccc(NC(=S)NCCC(c2ccccc2)c2ccccc2)c1` belongs 82.3 µM.
Regarding `Cc1ccc(Cl)cc1NC(=O)CSc1sc2c(O)cc(=O)[nH]c2c1C#N`, the EC50 was > 100 µM (inactive).
In the case of `Cc1ccc(NC(=O)CSc2sc3c(O)cc(=O)[nH]c3c2C#N)c(F)c1` it was > 100 µM (inactive); in that of `Cc1ccc(NC(=O)CCNS(=O)(=O)c2ccc3[nH]c(=O)oc3c2)c(C)c1`, > 100 µM (inactive); in that of `CN1CCC(=NNC(=O)c2cc(O)c(O)c(O)c2)CC1`, > 100 µM (inactive).
Regarding `O=C(NNC(=O)c1cc(O)c(O)c(O)c1)NC1CCCCC1`, the EC50 was > 100 µM (inactive).
To `COc1ccccc1NC(=O)CSc1sc2c(O)cc(=O)[nH]c2c1C#N` belongs > 100 µM (inactive); to `Cc1ccc(NC(=O)CCNS(=O)(=O)c2ccc3[nH]c(=O)oc3c2)cc1`, > 100 µM (inactive).
Turning to `O=C(CCCN1C(=O)/C(=C\c2ccco2)SC1=S)Nc1ccc(O)cc1C(=O)O`, the EC50 was > 100 µM (inactive).
Consider `N#Cc1c(SCC(=O)Nc2nc3ccc(Br)cc3s2)sc2c(O)cc(=O)[nH]c12`, for which the EC50 was > 100 µM (inactive).
To `COc1cc(C(=O)NNC(=O)c2n[nH]c3ccccc23)cc(OC)c1OC` belongs > 100 µM (inactive).
To `COc1ccc(NC(=O)C(CC(C)C)NS(=O)(=O)c2ccc3[nH]c(=O)oc3c2)cc1` (centres undefined) belongs > 100 µM (inactive); to `COc1cc(C(=O)NNC(=S)NC(=O)c2ccc(Cl)cc2)cc(OC)c1OC`, > 100 µM (inactive); to `COc1cccc(/C=N/NC(=O)c2cc(O)c(O)c(O)c2)c1`, > 100 µM (inactive).
In the case of `O=C(CN1C(=O)/C(=C/c2ccco2)SC1=S)Nc1ccc2nccnc2c1` it was > 100 µM (inactive).
With `CCCSc1nnc(NC(=O)CSc2sc3c(O)cc(=O)[nH]c3c2C#N)s1`, the EC50 is > 100 µM (inactive).
In the case of `N#Cc1c(SCC(=O)NCc2ccc3c(c2)OCO3)sc2c(O)cc(=O)[nH]c12`, the EC50 is > 100 µM (inactive).
In the case of `O=C(CCN1C(=O)/C(=C/c2ccco2)SC1=S)Nc1ccc(C(=O)O)c(O)c1` it was > 100 µM (inactive); in that of `CC(C(=O)NCCc1ccc(O)cc1)N1C(=O)/C(=C/c2ccco2)SC1=S` (centres undefined), > 100 µM (inactive); in that of `COc1ccccc1NC(=O)CCNS(=O)(=O)c1ccc2[nH]c(=O)oc2c1`, > 100 µM (inactive).
To `COc1cc(C(=O)NN=Cc2ccccn2)cc(OC)c1OC` belongs > 100 µM (inactive); to `O=[N+]([O-])c1ccc(NC(=S)NCCC(c2ccccc2)c2ccccc2)cc1`, > 100 µM (inactive); to `NS(=O)(=O)c1ccc(-c2ccc(/C=C3\SC(=S)N(C4CCS(=O)(=O)C4)C3=O)o2)cc1` (centres undefined), > 100 µM (inactive).
In the case of `O=C(N/N=C/c1ccc(F)cc1)c1cc(O)c(O)c(O)c1` it was > 100 µM (inactive); in that of `O=C(NCCc1ccc(Cl)cc1)C1CCCN(S(=O)(=O)c2ccc3[nH]c(=O)oc3c2)C1` (centres undefined), > 100 µM (inactive).
For `CCN(CC)C(=O)CSc1sc2c(O)cc(=O)[nH]c2c1C#N`, the EC50 is > 100 µM (inactive).
To `CCc1nnc(NC(=O)CSc2sc3c(O)cc(=O)[nH]c3c2C#N)s1` belongs > 100 µM (inactive).
To `COc1cc(C(=O)NNC(=O)C2CC2)cc(OC)c1OC` belongs > 100 µM (inactive).
To `O=C(N/N=C/c1ccccc1F)c1cc(O)c(O)c(O)c1` belongs > 100 µM (inactive).
With `COc1cc(C(=O)NNC(=S)NC(=O)c2ccccc2C)cc(OC)c1OC`, the EC50 is > 100 µM (inactive).
In the case of `CC(C(=O)Nc1ccccc1C(=O)O)N1C(=O)/C(=C\c2ccco2)SC1=S` (centres undefined) it was > 100 µM (inactive); in that of `CCOc1ccccc1NC(=O)CCNS(=O)(=O)c1ccc2[nH]c(=O)oc2c1`, > 100 µM (inactive).
Consider `COc1ccccc1CNC(=O)CCNS(=O)(=O)c1ccc2[nH]c(=O)oc2c1`, for which the EC50 was > 100 µM (inactive).
In the case of `N#Cc1c(SCC(=O)Nc2nc3ccccc3s2)sc2c(O)cc(=O)[nH]c12` it was > 100 µM (inactive); in that of `COc1cc([N+](=O)[O-])ccc1NC(=S)NCCC(c1ccccc1)c1ccccc1`, > 100 µM (inactive).
In the case of `CC(C(=O)Nc1ccc(C(=O)O)c(O)c1)N1C(=O)/C(=C\c2ccco2)SC1=S` (centres undefined) it was > 100 µM (inactive).
Turning to `Cc1cc(=O)oc2cc(NC(=S)NCCC(c3ccccc3)c3ccccc3)ccc12`, the EC50 is > 100 µM (inactive).

The values are drawn from PubChem BioAssay AID493146 (Sanford-Burnham Center for Chemical Genomics, 2011).
